We go through 11 compounds from US9708334B2, “Substituted 2,4,5,6-tetrahydropyrrolo[3,4-c]pyrazole and 4,5,6,7-tetrahydro-2H-pyrazolo[4,3-c]pyridine compounds as GlyT1 inhibitors” (DART NEUROSCIENCE (CAYMAN) LTD., priority 2014, dated 2017).

The assay concerns the target T1, GlyT1 (Homo sapiens, UniProt P48067).
T1 construct: expressed in transfected cells
T1 sequence (P48067 1-706): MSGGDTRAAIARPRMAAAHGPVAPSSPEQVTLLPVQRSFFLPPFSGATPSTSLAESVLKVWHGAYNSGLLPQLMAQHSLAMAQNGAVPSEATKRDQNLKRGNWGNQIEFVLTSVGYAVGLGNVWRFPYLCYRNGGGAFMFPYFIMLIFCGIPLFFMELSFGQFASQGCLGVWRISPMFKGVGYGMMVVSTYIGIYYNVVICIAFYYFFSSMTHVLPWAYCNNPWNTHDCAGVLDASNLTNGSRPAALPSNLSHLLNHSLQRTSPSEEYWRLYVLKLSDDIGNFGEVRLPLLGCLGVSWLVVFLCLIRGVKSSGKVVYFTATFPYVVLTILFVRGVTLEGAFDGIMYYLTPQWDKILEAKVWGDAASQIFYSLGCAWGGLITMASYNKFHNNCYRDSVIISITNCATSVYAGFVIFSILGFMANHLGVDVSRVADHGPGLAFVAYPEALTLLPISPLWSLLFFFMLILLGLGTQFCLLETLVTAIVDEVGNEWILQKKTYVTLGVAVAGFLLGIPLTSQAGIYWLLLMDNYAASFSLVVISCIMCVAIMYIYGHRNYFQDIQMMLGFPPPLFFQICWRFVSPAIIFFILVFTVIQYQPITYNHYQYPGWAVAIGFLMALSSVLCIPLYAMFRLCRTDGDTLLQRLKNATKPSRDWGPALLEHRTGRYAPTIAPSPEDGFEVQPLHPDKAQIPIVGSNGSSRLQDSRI
Briefly: Glycine Transporter 1 (GlyT1) uptake assay, scintillation proximity assay of [14C]-glycine uptake. The class given is cell-based. The following applies: SPA, four parameter logistic fit, read-out: GlyT1 (pIC50) (converted). In a few lines: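 IC50 values derive from four-parameter logistic curves fitted to dose-response data. Uptake of [14C]-glycine measured in scintillation proximity format.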
For orientation: SPA uses beads or plates that emit light when radiolabelled molecules are held near them.
Regarding `CC(Oc1ccc(C#N)c(Cl)c1C(=O)N1CCc2[nH]ncc2C1)C(F)(F)F` (centres unmarked) [Example 183, 2-Chloro-3-{1H 4H 5H 6H 7H-pyrazolo[4,3-c]pyridine-5-carbonyl}-4-[(1 1 1-trifluoropropan-2-yl)oxy]benzonitrile], the IC50 is over 10000 nM.

With `CCOc1c2c(nn1-c1ccc(F)cc1)CCN(C(=O)c1c(OC(C)C(F)(F)F)ccc(C#N)c1Cl)C2` (centres unmarked) [Example 184, 2-Chloro-3-[3-ethoxy-2-(4-fluorophenyl)-2H 4H 5H 6H 7H-pyrazolo[4,3-c]pyridine-5-carbonyl]-4-[(1 1 1-trifluoropropan-2-yl)oxy]benzonitrile], the IC50 was 1000 to 10000 nM.

Turning to `CC(Oc1ccc(C#N)c(Cl)c1C(=O)N1Cc2cnn(-c3ccc(F)cc3)c2C(C)(C)C1)C(F)(F)F` (centres unmarked) [Example 185, 2-Chloro-3-[1-(4-fluorophenyl)-7 7-dimethyl-1H 4H 5H 6H 7H-pyrazolo[4,3-c]pyridine-5-carbonyl]-4-[(1 1 1-trifluoropropan-2-yl)oxy]benzonitrile], the IC50 is under 100 nM.

As to `CC(Oc1ccc(C#N)c(Cl)c1C(=O)N1CCc2nn(C)c(C(F)(F)F)c2C1)C(F)(F)F` (centres unmarked) [Example 186, 2-Chloro-3-[2-methyl-3-(trifluoromethyl)-2H 4H 5H 6H 7H-pyrazolo[4,3-c]pyridine-5-carbonyl]-4-[(1 1 1-trifluoropropan-2-yl)oxy]benzonitrile], the IC50 is 1000 to 10000 nM.

For the compound `N#Cc1ccc(C2(F)CCCC2)c(C(=O)N2CCc3nn(-c4ccccc4)cc3C2)c1F` [Example 187, 2-Fluoro-4-(1-fluorocyclopentyl)-3-{2-phenyl-2H 4H 5H 6H 7H-pyrazolo[4,3-c]pyridine-5-carbonyl}benzonitrile], the IC50 is 100 to 1000 nM.

As for `N#Cc1ccc(C2(F)CCCC2)c(C(=O)N2CCc3nn(-c4ccc(F)cc4)cc3C2)c1F` [Example 188, 2-Fluoro-4-(1-fluorocyclopentyl)-3-[2-(4-fluorophenyl)-2H 4H 5H 6H 7H-pyrazolo[4,3-c]pyridine-5-carbonyl]benzonitrile], the IC50 was 100 to 1000 nM.

`Cc1c2c(nn1-c1ccc(F)cc1)CCN(C(=O)c1c(OC(C)C(F)(F)F)ccc(C#N)c1Cl)C2` (centres unmarked) [Example 189, 2-Chloro-3-[2-(4-fluorophenyl)-3-methyl-2H 4H 5H 6H 7H-pyrazolo[4,3-c]pyridine-5-carbonyl]-4-[(1 1 1-trifluoropropan-2-yl)oxy]benzonitrile]: the IC50 is 100 to 1000 nM.

For `Cc1nn(-c2ccc(F)cc2)c2c1CN(C(=O)c1c(OC(C)C(F)(F)F)ccc(C#N)c1Cl)CC2` (centres unmarked) [Example 190, 2-Chloro-3-[1-(4-fluorophenyl)-3-methyl-1H 4H 5H 6H 7H-pyrazolo[4,3-c]pyridine-5-carbonyl]-4-[(1 1 1-trifluoropropan-2-yl)oxy]benzonitrile], the IC50 was 100 to 1000 nM.

`CC(Oc1ccc(C#N)c(Cl)c1C(=O)N1Cc2cn(-c3ccc(F)cc3)nc2C(C)(C)C1)C(F)(F)F` (centres unmarked) [Example 191, 2-Chloro-3-[2-(4-fluorophenyl)-7 7-dimethyl-2H 4H 5H 6H 7H-pyrazolo[4,3-c]pyridine-5-carbonyl]-4-[(1 1 1-trifluoropropan-2-yl)oxy]benzonitrile]: the IC50 is 1000 to 10000 nM.

Take `COc1c(C#N)ccc(OC(C)C(F)(F)F)c1C(=O)N1Cc2cn(-c3ccc(F)cc3)nc2C(C)(C)C1` (centres unmarked) [Example 192, 3-[2-(4-Fluorophenyl)-7 7-dimethyl-2H 4H 5H 6H 7H-pyrazolo[4,3-c]pyridine-5-carbonyl]-2-methoxy-4-[(1 1 1-trifluoropropan-2-yl)oxy]benzonitrile]: the IC50 is 1000 to 10000 nM.

With `CC(Oc1ccc(C#N)c(Cl)c1C(=O)N1CCc2nn(-c3ccccc3)cc2C1)C(F)(F)F` (centres unmarked) [Example 193, 2-Chloro-3-{2-phenyl-2H 4H 5H 6H 7H-pyrazolo[4,3-c]pyridine-5-carbonyl}-4-[(1 1 1-trifluoropropan-2-yl)oxy]benzonitrile], the IC50 was 100 to 1000 nM.
